Laboratory results: US6156700A, “3-(1,2-Benzisothiazol- and isoxazol-5-yl)-2,4(1H,3H)-pyrimidinedione or thione and 3-(1,2-benzisothiazol- and isoxazol-5-yl)-4(3H)-pyrimidinone or thione herbicidal agents” (American Cyanmid Company, priority 1998, dated 2000)

Tests used:
[1] = test system: Sicklepod, Cassia obtusifolia; test: Preemergence herbicidal evaluation, CASOB; format: in vivo, L.; settings: 0.2500 kg/ha
Method in brief: (§1)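 Seeds mixed with potting soil were planted on about one inch of soil in cups, then sprayed with test compound in aqueous acetone at about 0.0156 to 0.500 kg per hectare. Plants were grown under greenhouse conditions and rated visually 4–5 weeks after treatment on a 0–9 scale against a control.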

CYPIR Rice Flatsedge = test: Preemergence weed control, flooded paddy (Table III); format: in vivo, Cyperus iria; parameters: scale not given here
Description: (§2) Preemergence herbicidal activity under flooded paddy conditions is determined as follows: plant seeds or propagating organs are planted in the top 0.5 cm of silt loam soil in 32 oz. plastic containers with a diameter of 10.5 cm and no drainage holes. Water is added to these containers and maintained at 1.5 to 3 cm above the soil surface for the duration of the experiment. The test compounds are applied as aqueous/acetone mixtures 50/50 v/v pipetted directly into the flood water to give the equivalent of about 0.0313 to 0.500 kg/ha of active ingredient. The treated containers are placed on greenhouse benches and cared for in accordance with conventional greenhouse procedures. Three to four weeks after treatment, the test is terminated and each container is examined and herbicidal effect rated according to the rating system provided in Example 185. The compounds evaluated are reported by compound number given in Example 185.

[2] = test system: Ragweed, Common, Ambrosia artemisifolia; test: Postemergence herbicidal evaluation, AMBEL; format: in vivo, L.
Method in brief: (§3)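 Roughly two-week-old seedlings sprayed with compound dispersed in 50/50 acetone/water plus 0.5% TWEEN 20, delivering about 0.0157 to 0.500 kg active per hectare through a nozzle at 40 psi. Kept in greenhouse; visually rated 4–5 weeks after treatment on a 0–9 scale (stand, vigor, malformation, size, chlorosis) versus control, replicate tests averaged.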

[3] = test system: Wheat, Winter, cv Riband, Triticum aestivum; test: Preemergence herbicidal evaluation, TRZAWR; format: in vivo; settings: 0.2500 kg/ha
Method in brief: as §1

[4] = test system: Wheat, Winter, cv Riband, Triticum aestivum; test: Postemergence herbicidal evaluation, TRZAWR; format: in vivo
Method in brief: as §3

ORYSAT Rice, Tebonnet [5] = test: Tolerance of transplanted rice to post-transplant application (Table III); format: in vivo, Oryza sativa; parameters: scale not given here; settings: crop tolerance
Description: The tolerance of transplanted rice to post-transplanted herbicide applications is determined as follows: two ten-day-old rice seedlings (cv. Tebonnet) are transplanted into silt loam soil in 32 oz. plastic containers with a diameter of 10.5 cm and no drainage holes. After transplanting, the containers are flooded and the water level is maintained at 1.5 to 3 cm above the soil surface. Three days after transplanting, the flooded soil surface of the containers is treated with the selected aqueous/acetone 50/50 v/v mixture containing the test compounds to provide the equivalent of about 0.0313 to 0.500 kg/ha of active ingredient. The treated containers are placed on greenhouse benches, watered such that the water level is maintained as stated above, and cared for in accordance with conventional greenhouse procedures. Three to four weeks after treatment, the test is terminated and each container is examined and herbicidal effect rated according to the rating system provided in Example 185. The compounds evaluated are reported by compound number given in Example 185.

[6] = test system: ECHORC Watergrass (Calif.); test: Postemergence weed control, flooded paddy (Table IV); format: in vivo, Echinochloa oryzoides; parameters: scale not given here
Method in brief: (§4)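 Rating scale scores taken 3–4 weeks post-treatment; compounds dosed in flood water (~0.0313–0.500 kg/ha) onto weeds 3–5 cm tall and 1.5–2.5 leaf rice under 1.5–3 cm standing water.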

[7] = test system: ECHORC Watergrass (Calif.); test: Preemergence weed control, flooded paddy (Table III); format: in vivo, Echinochloa oryzoides; parameters: scale not given here
Description: as §2

ORYSAT Rice, Tebonnet [8] = test: Rice tolerance, flooded paddy (Table IV); format: in vivo, Oryza sativa; parameters: scale not given here; settings: crop tolerance
Method in brief: as §4

Corn, Field, Zea mays [9] = test: Postemergence herbicidal evaluation, ZEAMX; format: in vivo, L.
Method in brief: as §3

Corn, Field, Zea mays [10] = test: Preemergence herbicidal evaluation, ZEAMX; format: in vivo, L.; settings: 0.2500 kg/ha
Method in brief: as §1

[11] = test system: SAGPY Arrowhead (Pygmaea); test: Preemergence weed control, flooded paddy (Table III); format: in vivo, Sagittaria pygmaea; parameters: scale not given here
Description: as §2

[12] = test system: Sicklepod, Cassia obtusifolia; test: Postemergence herbicidal evaluation, CASOB; format: in vivo, L.
Method in brief: as §3

[13] = test system: Morningglory Spp., Ipomoea Spp.; test: Postemergence herbicidal evaluation, IPOSS; format: in vivo; settings: 0.2500 kg/ha
Description: In the tests, seedling plants are grown in jiffy flats for about two weeks. The test compounds are dispersed in 50/50 acetone/water mixtures containing 0.5% TWEEN®20, a polyoxyethylene sorbitan monolaurate surfactant of Atlas Chemical Industries, in sufficient quantities to provide the equivalent of about 0.0157 kg to 0.500 kg per hectare of active compound when applied to the plants through a spray nozzle operating at 40 psi for a predetermined time. After spraying, the plants are placed on greenhouse benches and are cared for in accordance with conventional greenhouse procedures. From four to five weeks after treatment, the seedling plants are examined and rated according to the rating system set forth below. Where more than one test is involved for a given compound, the data are averaged.
Results of herbicide evaluation are expressed on a rating scale (0-9). The scale is based upon a visual observation of plant stand, vigor, malformation, size, chlorosis and overall plant appearance as compared with a control.

[14] = test system: Rice, Tebonnet, Oryza sativa; test: Preemergence herbicidal evaluation, ORYSAT; format: in vivo, (L.) Tebonnet; settings: 0.2500 kg/ha
Method in brief: as §1

Compound	herbicide rating (0-9) [1]	herbicidal effect rating (CYPIR Rice Flatsedge; 0.0625 kg/ha)	herbicidal effect rating (CYPIR Rice Flatsedge; 0.1250 kg/ha)	herbicidal effect rating (CYPIR Rice Flatsedge; 0.2500 kg/ha)	herbicidal effect rating (CYPIR Rice Flatsedge; 0.5000 kg/ha)	herbicide rating (0-9) ([2]; 0.2500 kg/ha)	herbicide rating (0-9) [3]	herbicide rating (0-9) ([4]; 0.2500 kg/ha)	herbicidal effect rating (ORYSAT Rice, Tebonnet [5]; 0.0625 kg/ha)	herbicidal effect rating (ORYSAT Rice, Tebonnet [5]; 0.1250 kg/ha)	herbicidal effect rating (ORYSAT Rice, Tebonnet [5]; 0.2500 kg/ha)	herbicidal effect rating (ORYSAT Rice, Tebonnet [5]; 0.5000 kg/ha)	herbicidal effect rating ([6]; 0.1250 kg/ha)	herbicidal effect rating ([6]; 0.2500 kg/ha)	herbicidal effect rating ([6]; 0.5000 kg/ha)	herbicidal effect rating ([7]; 0.0625 kg/ha)	herbicidal effect rating ([7]; 0.1250 kg/ha)	herbicidal effect rating ([7]; 0.2500 kg/ha)	herbicidal effect rating ([7]; 0.5000 kg/ha)	herbicidal effect rating (ORYSAT Rice, Tebonnet [8]; 0.1250 kg/ha)	further results
Cn1c(C(F)(F)F)cc(=O)n(-c2ccc3snc(-c4ccccc4)c3c2)c1=O [Compound 4, 1-Methyl-3-(3-phenyl-1,2-benzisothiazol-5-yl)-6-(trifluoromethyl)-2,4(1H,3H)-pyrimidinedione]	9.0	9.0	9.0	9.0	9.0	9.0	7.0	3.0	7.0	7.0	8.0	8.0	9.0	9.0	9.0	9.0	9.0	9.0	9.0	7.0	herbicidal effect rating (CYPIR Rice Flatsedge; 0.0313 kg/ha): 9.0; herbicidal effect rating (ORYSAT Rice, Tebonnet [5]; 0.0313 kg/ha): 4.0; herbicidal effect rating ([7]; 0.0313 kg/ha): 9.0; herbicidal effect rating (ORYSAT Rice, Tebonnet [8]; 0.2500 kg/ha): 8.0; herbicidal effect rating (ORYSAT Rice, Tebonnet [8]; 0.5000 kg/ha): 8.0; herbicide rating (0-9) (Corn, Field, Zea mays [9]; 0.2500 kg/ha): 3.0; herbicide rating (0-9) (Corn, Field, Zea mays [10]): 7.0; herbicidal effect rating ([11]; 0.0313 kg/ha): 2.0; herbicidal effect rating ([11]; 0.0625 kg/ha): 2.0; herbicidal effect rating ([11]; 0.1250 kg/ha): 6.0; herbicidal effect rating ([11]; 0.2500 kg/ha): 9.0; herbicidal effect rating ([11]; 0.5000 kg/ha): 9.0; herbicide rating (0-9) ([12]; 0.2500 kg/ha): 9.0; herbicide rating (0-9) [13]: 9.0; herbicide rating (0-9) [14]: 7.0
COC(=O)COc1cc(C)ccc1-c1nsc2ccc(-n3c(=O)cc(C(F)(F)F)n(C)c3=O)cc12 [Compound 8, Methyl {{6-{5-[3,6-dihydro-3-methyl-4-(trifluoromethyl)-2,6-dioxo-1(2H)-pyrimidinyl]-1,2-benzisothiazol-3-yl}-m-tolyl}oxy}acetate]	9.0	9.0	9.0	9.0	9.0	9.0	9.0	9.0	7.0	9.0	9.0	9.0	9.0	9.0	9.0	9.0	9.0	9.0	9.0	6.0	herbicidal effect rating (CYPIR Rice Flatsedge; 0.0313 kg/ha): 9.0; herbicidal effect rating (ORYSAT Rice, Tebonnet [5]; 0.0313 kg/ha): 7.0; herbicidal effect rating ([7]; 0.0313 kg/ha): 9.0; herbicidal effect rating (ORYSAT Rice, Tebonnet [8]; 0.2500 kg/ha): 8.0; herbicidal effect rating (ORYSAT Rice, Tebonnet [8]; 0.5000 kg/ha): 9.0; herbicide rating (0-9) (Corn, Field, Zea mays [9]; 0.2500 kg/ha): 9.0; herbicide rating (0-9) (Corn, Field, Zea mays [10]): 9.0; herbicidal effect rating ([11]; 0.0313 kg/ha): 6.0; herbicidal effect rating ([11]; 0.0625 kg/ha): 9.0; herbicidal effect rating ([11]; 0.1250 kg/ha): 9.0; herbicidal effect rating ([11]; 0.2500 kg/ha): 9.0; herbicidal effect rating ([11]; 0.5000 kg/ha): 9.0; herbicide rating (0-9) ([12]; 0.2500 kg/ha): 9.0; herbicide rating (0-9) [13]: 9.0; herbicide rating (0-9) [14]: 9.0
Cc1cc(O)c(-c2nsc3ccc(-n4c(=O)cc(C(F)(F)F)n(C)c4=O)cc23)cc1C [Compound 11, 3-[3-(6-Hydroxy-3,4-xylyl)-1,2-benzisothiazol-5-yl]-1-methyl-6-(trifluoromethyl)-2,4(1H,3H)-pyrimidinedione]	3.0	9.0	9.0	9.0	9.0	9.0	4.0	5.0	2.0	2.0	3.0	3.0	2.0	4.0	7.0	7.0	8.0	8.0	9.0	0.0	herbicidal effect rating (ORYSAT Rice, Tebonnet [8]; 0.2500 kg/ha): 1.0; herbicidal effect rating (ORYSAT Rice, Tebonnet [8]; 0.5000 kg/ha): 1.0; herbicide rating (0-9) (Corn, Field, Zea mays [9]; 0.2500 kg/ha): 5.5; herbicide rating (0-9) (Corn, Field, Zea mays [10]): 5.0; herbicidal effect rating ([11]; 0.0625 kg/ha): 0.0; herbicidal effect rating ([11]; 0.1250 kg/ha): 0.0; herbicidal effect rating ([11]; 0.2500 kg/ha): 2.0; herbicidal effect rating ([11]; 0.5000 kg/ha): 9.0; herbicide rating (0-9) ([12]; 0.2500 kg/ha): 7.0; herbicide rating (0-9) [13]: 9.0; herbicide rating (0-9) [14]: 0.0
COC(=O)C(C)Oc1ccc(C)cc1-c1nsc2ccc(-n3c(=O)cc(C(F)(F)F)n(C)c3=O)cc12 (centres unmarked) [Compound 3]	9.0	9.0	9.0	9.0	9.0	9.0	6.3	8.0	2.0	3.0	4.0	4.0	0.0	2.0	4.0	9.0	9.0	9.0	9.0	3.0	herbicidal effect rating (CYPIR Rice Flatsedge; 0.0313 kg/ha): 9.0; herbicide rating (0-9) ([2]; 0.0630 kg/ha): 9.0; herbicide rating (0-9) ([4]; 0.0630 kg/ha): 8.8; herbicidal effect rating (ORYSAT Rice, Tebonnet [5]; 0.0313 kg/ha): 2.0; herbicidal effect rating ([7]; 0.0313 kg/ha): 9.0; herbicidal effect rating (ORYSAT Rice, Tebonnet [8]; 0.2500 kg/ha): 3.0; herbicidal effect rating (ORYSAT Rice, Tebonnet [8]; 0.5000 kg/ha): 3.0; herbicide rating (0-9) (Corn, Field, Zea mays [9]; 0.0630 kg/ha): 8.3; herbicide rating (0-9) (Corn, Field, Zea mays [9]; 0.2500 kg/ha): 9.0; herbicide rating (0-9) (Corn, Field, Zea mays [10]): 7.3; herbicidal effect rating ([11]; 0.0313 kg/ha): 0.0; herbicidal effect rating ([11]; 0.0625 kg/ha): 2.0; herbicidal effect rating ([11]; 0.1250 kg/ha): 6.0; herbicidal effect rating ([11]; 0.2500 kg/ha): 8.0; herbicidal effect rating ([11]; 0.5000 kg/ha): 9.0; herbicide rating (0-9) ([12]; 0.0630 kg/ha): 9.0; herbicide rating (0-9) ([12]; 0.2500 kg/ha): 9.0; herbicide rating (0-9) [13]: 9.0; herbicide rating (0-9) [14]: 6.8
